pIC50: −log10 of the molar value. Converted amounts (≈) assume the structure as drawn. Bounds are passed on as bounds.

Here are results for 18 molecules from ChEMBL document CHEMBL2029234, “Sulfonyl-morpholino-pyrimidines: SAR and development of a novel class of selective mTOR kinase inhibitor” (Bioorg Med Chem Lett, 2012).

The target of data set [1] is Voltage-gated inwardly rectifying potassium channel KCNH2 (Homo sapiens, UniProt Q12809).
A short description of data set [2]: Fraction unbound in rat plasma. It is filed as ADME, cell-free.
Data set [3] addresses Serine/threonine-protein kinase mTOR (Homo sapiens, UniProt P42345). In words: Inhibition of recombinant FLAG-tagged mTOR kinase expressed in HEK293 cells using Biotin-Ahx-Lys-Lys-Ala-Asn-Gln-Val-Phe-Leu-Gly-Phe-Thr-Tyr-Val-Ala-Pro-Ser-Val-Leu-Glu-Ser-Val-Lys-Glu-NH2 as substrate after 90 mins.
Data set [4] deals with Phosphatidylinositol 4,5-bisphosphate 3-kinase catalytic subunit alpha isoform (Homo sapiens, UniProt P42336). Kind of data set: Inhibition of human recombinant PI3Kalpha expressed in baculovirus system using PI(4,5)P2 as substrate after 20 mins.
Data set [5] can be described thus: physchem. To be noted: aqueous, pH 7.4.
The nature of data set [6]: Inhibition of Akt Ser473 phosphorylation in human MDA-MB-468 cells after 2 hrs. It is filed as cell-based. To be noted: MDA-MB-468, 2 h.
A short description of data set [7]: physchem. The settings on record: buffer, pH 7.4.
A short description of data set [8]: Apparent permeability from apical to basal side of MDCK cells. It is filed as ADME, cell-based, Canis lupus familiaris. To be noted: dog.
Data set [9] can be described thus: Plasma clearance in iv dosed rat. It is filed as ADME, organism-based.
Data set [10] is described as follows: Oral bioavailability in rat. It is filed as ADME, organism-based. To be noted: in vivo.
A short description of data set [11]: Volume of distribution in iv dosed rat. It is filed as ADME, organism-based. The settings on record: in vivo.
The target of a further data set is Cytochrome P450 2C9 (Homo sapiens, UniProt P11712). In words: Inhibition of CYP2C9. It is filed as ADME.
The nature of data set [12]: Apparent permeability from basal to apical side of MDCK cells. It is filed as ADME, cell-based, Canis lupus familiaris. To be noted: dog.
A short description of data set [13]: Inhibition of Cytochrome P450. It is filed as ADME.

Voltage-gated inwardly rectifying potassium channel KCNH2, sequence (Q12809 whole entry): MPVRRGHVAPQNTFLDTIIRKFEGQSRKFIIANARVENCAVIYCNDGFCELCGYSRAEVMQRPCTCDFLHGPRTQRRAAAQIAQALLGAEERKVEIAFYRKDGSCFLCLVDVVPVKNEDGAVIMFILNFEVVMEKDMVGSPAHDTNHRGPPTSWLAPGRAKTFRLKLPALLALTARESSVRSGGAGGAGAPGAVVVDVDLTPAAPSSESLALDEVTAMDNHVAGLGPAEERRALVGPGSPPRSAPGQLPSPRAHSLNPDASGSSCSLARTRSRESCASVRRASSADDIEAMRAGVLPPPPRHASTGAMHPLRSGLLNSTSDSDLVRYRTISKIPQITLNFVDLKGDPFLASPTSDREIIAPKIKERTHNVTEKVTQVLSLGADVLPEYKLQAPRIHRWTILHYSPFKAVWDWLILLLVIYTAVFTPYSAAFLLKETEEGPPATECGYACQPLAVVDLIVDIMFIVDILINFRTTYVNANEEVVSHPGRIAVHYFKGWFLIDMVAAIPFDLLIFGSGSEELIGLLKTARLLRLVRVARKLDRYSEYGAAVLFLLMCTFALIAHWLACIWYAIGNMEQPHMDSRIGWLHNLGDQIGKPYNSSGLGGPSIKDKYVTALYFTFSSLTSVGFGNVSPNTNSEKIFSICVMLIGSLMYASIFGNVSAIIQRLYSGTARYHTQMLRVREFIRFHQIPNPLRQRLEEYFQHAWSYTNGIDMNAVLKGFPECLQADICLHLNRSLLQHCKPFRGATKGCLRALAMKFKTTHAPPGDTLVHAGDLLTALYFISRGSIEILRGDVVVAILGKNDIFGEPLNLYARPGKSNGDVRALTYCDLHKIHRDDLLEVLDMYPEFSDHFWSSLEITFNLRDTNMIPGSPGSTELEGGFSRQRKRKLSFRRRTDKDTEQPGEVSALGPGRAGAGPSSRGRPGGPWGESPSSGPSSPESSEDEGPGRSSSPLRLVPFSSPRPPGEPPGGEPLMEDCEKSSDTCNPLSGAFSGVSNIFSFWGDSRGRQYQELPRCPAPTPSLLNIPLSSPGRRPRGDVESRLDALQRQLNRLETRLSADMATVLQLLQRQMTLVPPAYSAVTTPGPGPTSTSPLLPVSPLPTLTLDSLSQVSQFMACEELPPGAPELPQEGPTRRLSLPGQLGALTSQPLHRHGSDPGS
Phosphatidylinositol 4,5-bisphosphate 3-kinase catalytic subunit alpha isoform, sequence (P42336 whole entry, canonical isoform): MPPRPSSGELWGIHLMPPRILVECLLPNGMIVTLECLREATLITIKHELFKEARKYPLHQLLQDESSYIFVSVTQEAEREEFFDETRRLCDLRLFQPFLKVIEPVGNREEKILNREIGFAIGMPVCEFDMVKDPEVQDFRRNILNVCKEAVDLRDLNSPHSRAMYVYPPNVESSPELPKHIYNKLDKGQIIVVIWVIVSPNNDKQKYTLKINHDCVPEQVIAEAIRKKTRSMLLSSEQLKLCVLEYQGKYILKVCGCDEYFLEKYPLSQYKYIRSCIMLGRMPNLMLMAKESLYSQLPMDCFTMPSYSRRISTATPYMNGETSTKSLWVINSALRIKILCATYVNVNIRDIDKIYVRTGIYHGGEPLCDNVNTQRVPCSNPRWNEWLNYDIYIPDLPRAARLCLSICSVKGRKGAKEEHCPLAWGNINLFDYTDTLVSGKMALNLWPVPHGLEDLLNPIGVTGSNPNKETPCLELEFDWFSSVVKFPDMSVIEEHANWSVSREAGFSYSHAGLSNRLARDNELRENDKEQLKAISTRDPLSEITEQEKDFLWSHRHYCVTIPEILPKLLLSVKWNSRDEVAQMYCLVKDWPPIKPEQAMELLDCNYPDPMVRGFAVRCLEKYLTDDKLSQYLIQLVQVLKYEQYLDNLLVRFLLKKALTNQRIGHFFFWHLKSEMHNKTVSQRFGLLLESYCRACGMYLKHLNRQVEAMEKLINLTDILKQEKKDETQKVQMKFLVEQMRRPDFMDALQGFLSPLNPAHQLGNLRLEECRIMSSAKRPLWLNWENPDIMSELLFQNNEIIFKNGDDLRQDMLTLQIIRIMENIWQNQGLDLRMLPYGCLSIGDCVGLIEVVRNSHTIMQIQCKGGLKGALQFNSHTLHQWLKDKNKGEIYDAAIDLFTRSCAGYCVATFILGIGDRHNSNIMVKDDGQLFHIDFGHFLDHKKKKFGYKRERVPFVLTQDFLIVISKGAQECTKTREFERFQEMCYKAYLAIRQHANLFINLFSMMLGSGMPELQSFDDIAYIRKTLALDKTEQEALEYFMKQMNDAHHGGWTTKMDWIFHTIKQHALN
Cytochrome P450 2C9, sequence (P11712 whole entry): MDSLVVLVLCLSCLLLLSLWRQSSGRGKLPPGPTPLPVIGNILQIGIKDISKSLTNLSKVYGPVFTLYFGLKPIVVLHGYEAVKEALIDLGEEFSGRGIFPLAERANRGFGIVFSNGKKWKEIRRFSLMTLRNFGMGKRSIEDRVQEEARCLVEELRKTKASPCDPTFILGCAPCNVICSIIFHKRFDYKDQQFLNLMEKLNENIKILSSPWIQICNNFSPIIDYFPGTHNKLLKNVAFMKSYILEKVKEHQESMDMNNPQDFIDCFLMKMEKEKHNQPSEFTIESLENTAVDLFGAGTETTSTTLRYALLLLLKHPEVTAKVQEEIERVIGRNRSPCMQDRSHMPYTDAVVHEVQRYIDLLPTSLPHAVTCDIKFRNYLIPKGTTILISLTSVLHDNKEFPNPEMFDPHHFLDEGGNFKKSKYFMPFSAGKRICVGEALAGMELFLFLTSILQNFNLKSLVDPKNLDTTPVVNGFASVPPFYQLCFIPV

By pIC50 is commonly meant −log10 of the IC50, conventionally taken in molar units. As a reminder, the fraction unbound is the share of the substance not bound to proteins or other matrix. A word on the solubility: it is the dissolved amount per volume that the medium holds. The low end stands for little dissolved substance, the high end for much dissolved substance. Take `CS(=O)(=O)Cc1cc(N2CC3CCC(C2)O3)nc(-c2ccc3[nH]ccc3c2)n1`: the pIC50 in data set [1] is below 4.49; in [3], 6.60; in data set [4], below 4.32; in [6], 5.72. In addition, in [2], the free fraction (fraction unbound) was found to be 0.22. The same molecule came in with a solubility in the data set “physchem [5]” of 1.5 µM (≈ 0.598 µg/mL).
For orientation: logD means lipophilicity at a set pH, counting ionised and neutral species. Consider `CS(=O)(=O)Cc1cc(N2CCOCC2)nc(-c2cccc3[nH]ccc23)n1`, for which the logD in the data set “physchem [7]” is 1.7. In addition, the pIC50 is below 4.48 in data set [1], 5.84 in data set [3], 4.84 in [4] and 5.20 in data set [6]. This molecule also showed a fraction unbound in data set [2] of 0.301. The molecule further displayed a solubility in the data set “physchem [5]” of 13 µM (≈ 4.84 µg/mL).
For the molecule `CS(=O)(=O)Cc1cc(N2CCOCC2)nc(NC(=O)c2ccno2)n1`, the logD in “physchem [7]” worked out at 1.74. The molecule also came in with a fraction unbound in data set [2] of 0.32. Besides, the pIC50 in data set [3] was 7.43; in [4], below 4.00; in data set [6], 5.29.
Turning to `CC(C)S(=O)(=O)Cc1cc(N2CCOCC2)nc(-c2ccccn2)n1`, the negative logarithm of the IC50 (pIC50) in data set [3] was 5.81; in data set [4], 4.44; in [6] it was below 4.52.
A word on the Papp A→B: it is the apparent permeability from the apical to the basolateral side of a cell layer. As usually defined, the clearance is the volume of plasma or blood freed of the substance per unit of time. Low readings indicate inefficient removal, high ones efficient removal. A word on the bioavailability: it is dose-corrected exposure relative to a reference, in per cent. Read a high bioavailability as good availability. The Vd is a proportionality between amount in the body and measured concentration, not a real space. What is called Papp B→A is the apparent permeability from the basolateral to the apical side of a cell layer. On to `CS(=O)(=O)Cc1cc(N2CCOCC2)nc(-c2ccc3[nH]ccc3c2)n1`, for which the Papp A→B in data set [8] amounted to 37 ×10⁻⁶ cm/s. Further, the logD in “physchem [7]” turned out to be 2.1. Besides, the values for the negative-log IC50 (pIC50) (in data set [1]; against Cytochrome P450 2C9; in data set [6]) were below 4.49, 5.30 and 5.24, respectively. This molecule also displayed a fraction unbound in [2] of 0.193. Moreover, the clearance in [9] was found to be 4 mL/min/kg. In addition, the bioavailability in data set [10] stood at 3%. Moreover, in data set [11], the Vd stood at 0.4 L/kg. Moreover, the Papp B→A in [12] amounted to 34 ×10⁻⁶ cm/s. Further, the solubility in “physchem [5]” is 6.2 µM (≈ 2.31 µg/mL).
Turning to `O=S(=O)(Cc1cc(N2CCOCC2)nc(-c2ccccn2)n1)c1ccccc1`, the figures for the negative logarithm of the IC50 (pIC50) in [13], in data set [1] and in data set [6] were below 5.00, below 4.49 and 5.04, respectively. The molecule further gave a logD in “physchem [7]” of 1.34. For the same molecule, the clearance in data set [9] worked out at 32 mL/min/kg. Also, the bioavailability in data set [10] stood at 18%.
In the case of `CS(=O)(=O)Cc1cc(N2CCOCC2)nc(-c2ccccc2)n1`, the negative-log IC50 (pIC50) was below 5.00 in [13], 5.30 in data set [3], below 3.00 in data set [4] and below 4.52 in [6]. Further, the logD in the data set “physchem [7]” was 1.94. In data set [2], this molecule came in with a fraction unbound of 0.28. In [9], this molecule showed a clearance of 11 mL/min/kg. Further, the bioavailability in data set [10] turned out to be 97%.
For `CS(=O)(=O)Cc1cc(N2CCOCC2)nc(-c2ccc3[nH]cnc3c2)n1`, the pIC50 in [1] was below 4.49; in data set [3] it was 6.55; in data set [4], 5.97; in [6], 5.14. Besides, the clearance in [9] came to 37 mL/min/kg. In addition, the bioavailability in data set [10] worked out at 10%.
In the case of `CS(=O)(=O)Cc1cc(N2CCOCC2)nc(-c2cccc(CO)c2)n1`, in [2], the fraction unbound stood at 0.447. In [9], this molecule yielded a clearance of 25 mL/min/kg. Further, in [10], the bioavailability is 41%. For the same molecule, the pIC50 in data set [3] was 6.22; in data set [4], 5.69; in data set [6], 5.47.
Take `COCc1cccc(-c2nc(CS(C)(=O)=O)cc(N3CCOCC3)n2)c1`: the pIC50 in data set [3] was 4.65; in data set [4] it was below 3.52.
As to `O=S(=O)(Cc1cc(N2CCOCC2)nc(-c2ccccn2)n1)c1ccc(F)cc1`, the pIC50 in [3] is 5.86; in [4] it was 5.12; in data set [6], 4.91.
For the molecule `CS(=O)(=O)Cc1cc(N2CCOCC2)nc(-c2cnc3[nH]ccc3c2)n1`, the pIC50 in [1] was below 4.49; in data set [3] it was 6.58; in data set [4], 6.01; in data set [6], 5.99. Besides, the clearance in data set [9] worked out at 4 mL/min/kg. This molecule displayed a bioavailability in data set [10] of 43%. The solubility in “physchem [5]” came out at 48 µM (≈ 17.9 µg/mL).
`Cn1ccc2cc(-c3nc(CS(C)(=O)=O)cc(N4CCOCC4)n3)ccc21`: the pIC50 in data set [3] is below 4.00; in [4] it was below 4.62.
Regarding `C[C@H]1COCCN1c1cc(CS(C)(=O)=O)nc(-c2ccc3[nH]ccc3c2)n1`, in “physchem [7]”, the logD turned out to be 2.4. This molecule also gave a fraction unbound in [2] of 0.167. Besides, the clearance in data set [9] worked out at 36 mL/min/kg. Moreover, in data set [10], the bioavailability came to 33%. The negative logarithm of the IC50 (pIC50) is 4.64 in data set [4] and 5.73 in [6]. The concentration in solution in “physchem [5]” (solubility) was 192 µM (≈ 74.2 µg/mL).
For the molecule `O=S(=O)(CCc1cnccn1)Cc1cc(N2CCOCC2)nc(-c2ccccn2)n1`, the pH-dependent lipophilicity (logD) in “physchem [7]” is below 0.5. In addition, the pIC50 in data set [3] is 5.50; in data set [4], below 4.05; in data set [6] it was below 4.10.
In the data set “physchem [7]”, `CS(=O)(=O)Cc1cc(N2CCOCC2)nc(-c2ccc(NC(=O)Nc3ccc(F)cc3)cc2)n1` had a logD above 3.2.
In the case of `C[C@@H]1COCCN1c1cc(CS(C)(=O)=O)nc(-c2ccc3[nH]ccc3c2)n1`, the values for the pIC50 in [4] and in [6] were 5.28 and 5.51, respectively.
`CS(=O)(=O)Cc1cc(N2CCOCC2)nc(-c2ccc(NS(C)(=O)=O)cc2)n1` yielded a pH-dependent lipophilicity (logD) in the data set “physchem [7]” of 0.85. In [2], this molecule yielded a fraction unbound above 0.66. In data set [9], this molecule showed a clearance of 15 mL/min/kg. In data set [10], this molecule came in with a bioavailability of 38%. In addition, the pIC50 in data set [4] was below 4.00; in data set [6], below 4.70. The molecule also gave a solubility in “physchem [5]” of 11 µM (≈ 4.69 µg/mL).
